Assay results reported in patent publication US20070032529A1, “Pyrazole compounds and their use as antidiabetes agents” (Japan Tobacco Inc., priority 2005, published 2007).
pIC50: −log10 of the molar value. Counter-ions that a name gives are not always drawn.

Assays:
[1] = target: T1, recombinant human liver glycogen phosphorylase (Homo sapiens, UniProt P06737); test: Measuring liver glycogen phosphorylase activity (forward reaction system, NADPH absorbance at 340 nm); type: biochemical
T1 construct: made in house; host or cells: Sf9 insect cells (crude homogenate, diluted, used as the enzyme solution)
T1 sequence (P06737 1-847): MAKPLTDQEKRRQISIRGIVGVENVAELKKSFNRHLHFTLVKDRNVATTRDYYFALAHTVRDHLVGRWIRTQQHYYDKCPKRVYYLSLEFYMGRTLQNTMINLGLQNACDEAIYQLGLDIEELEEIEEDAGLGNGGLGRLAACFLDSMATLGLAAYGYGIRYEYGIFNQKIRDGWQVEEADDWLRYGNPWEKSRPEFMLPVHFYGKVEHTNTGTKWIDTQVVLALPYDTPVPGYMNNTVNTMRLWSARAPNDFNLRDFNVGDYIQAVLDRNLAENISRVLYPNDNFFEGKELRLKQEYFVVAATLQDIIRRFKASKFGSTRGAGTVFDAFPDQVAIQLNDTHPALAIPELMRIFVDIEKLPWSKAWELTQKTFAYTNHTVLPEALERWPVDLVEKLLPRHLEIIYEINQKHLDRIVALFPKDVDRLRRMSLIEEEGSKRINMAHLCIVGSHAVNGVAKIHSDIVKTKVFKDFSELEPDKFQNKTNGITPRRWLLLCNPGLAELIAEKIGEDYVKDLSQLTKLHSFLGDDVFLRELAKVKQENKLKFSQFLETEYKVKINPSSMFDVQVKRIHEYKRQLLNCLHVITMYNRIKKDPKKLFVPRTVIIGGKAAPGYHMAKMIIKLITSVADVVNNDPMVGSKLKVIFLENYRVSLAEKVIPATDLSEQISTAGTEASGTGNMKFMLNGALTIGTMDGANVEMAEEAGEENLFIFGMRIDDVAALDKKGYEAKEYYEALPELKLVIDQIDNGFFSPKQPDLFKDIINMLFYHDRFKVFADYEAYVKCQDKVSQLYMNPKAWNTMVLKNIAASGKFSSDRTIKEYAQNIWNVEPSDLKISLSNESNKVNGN
In short: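 Compounds in 1% DMSO; activity taken as blank-subtracted 340 nm absorbance change across 75 min at room temperature. Forward reaction: glucose-1-phosphate released from glycogen converted by coupling enzymes, yielding NADPH; enzyme from recombinant Sf9 homogenate, reaction containing glucose, pH 6.8. IC50 from two-point linear interpolation.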

db/db mice = test: Measuring blood plasma glucose concentration in db/db mice (hypoglycemic effect); type: in vivo; parameters: key: ++: compounds exhibiting statistically significant hypoglycemic effect at a dose of 10 mg/kg or less; +: compounds exhibiting not significant but obvious hypoglycemic effect at a dose of 10 mg/kg; conditions: for vivo (hypoglycemic effect in db/db mice): db/db mice fasted 4 h, oral administration, plasma glucose 1 and 3 hours after administration, dose 10 mg/kg or less, Dunnett test vs solvent; for vivo (hypoglycemic effect): db/db mice, blood plasma glucose, dose of 10 mg/kg or less
Description: 2. Exemplary Test (2) Method for Measuring Blood Plasma Glucose Concentration
Using db/db mice representing an obesity type of diabetic model were used to examine the effect of compound (1) of the present invention on glucose concentrations in plasma. Plasma glucose concentrations of the db/db mice (9-18 weeks old) were measured, and the mice were divided into groups each of 5 or 8 mice such that there would be no difference in the average value of plasma glucose concentrations. After fasting for four hours, the example compound or the solvent (0.5% methylcellulose) was administered orally to the db/db mice, and plasma glucose concentrations were measured 1 and 3 hours after administration. The analysis of the hypoglycemic effect of the example compound was performed through a statistical test at every hour between the group receiving the solvent and the groups of example compound (Dunnett test).

[2] = enzyme inhibitory activity with respect to liver glycogen phosphorylase, class symbols
[3] = human liver glycogen phosphorylase, class symbol

Row | Compound | pIC50 [1, 2] | vivo (hypoglycemic effect in db/db mice) (db/db mice) | vivo (hypoglycemic effect in db/db mice) (db/db mice; 10 mg/kg) | pIC50 [1, 3] | vivo (hypoglycemic effect) (db/db mice)
1 | COc1cc(C)ncc1CNC(=O)c1cc(NC(=O)c2cc(F)c(F)cc2Cl)[nH]n1 [Example 2-6, 5-(2-chloro-4,5-difluoro-benzoylamino)-1H-pyrazole-3-carboxylic acid (4-methoxy-6-methyl-pyridin-3-ylmethyl)-amide] | > 7.00 | ++ | – | – | –
2 | COc1ccc(CNC(=O)c2cc(NC(=O)c3cc(F)c(F)cc3Cl)[nH]n2)cn1 [Example 1-12] | > 7.00 | – | ++ | – | –
3 | Cl.O=C(NCc1ccccn1)c1cc(NC(=O)c2cc(F)c(F)cc2Cl)[nH]n1 [Example 3-20] | > 7.00 | + | – | – | –
4 | O=C(O)c1ccc(CNC(=O)c2cc(NC(=O)c3cc(F)c(F)cc3Cl)[nH]n2)cc1 [Example 1-73] | > 7.00 | + | – | – | –
5 | O=C(NCc1ccnc(C(=O)NN2CCOCC2)c1)c1cc(NC(=O)c2cc(F)c(F)cc2Cl)[nH]n1 [Example 5-14] | > 7.00 | + | – | – | –
6 | O=C(NCc1ccc(N2CCC(O)CC2)nc1)c1cc(NC(=O)c2cc(F)c(F)cc2Cl)[nH]n1 [Example 1-138] | > 7.00 | + | – | – | –
7 | Cl.O=C(NCc1ccc(N2CCOCC2)nc1)c1cc(NC(=O)c2cc(F)c(F)cc2Cl)[nH]n1 [Example 5-25] | > 7.00 | ++ | – | – | –
8 | COc1nc(C)cc(C)c1CNC(=O)c1cc(NC(=O)c2cc(F)c(F)cc2Cl)[nH]n1 [Example 2-7-1, 5-(2-chloro-4,5-difluoro-benzoylamino)-1H-pyrazole-3-carboxylic acid (2-methoxy-4,6-dimethyl-pyridin-3-ylmethyl)-amide dihydrochloride] | > 7.00 | ++ | – | – | –
9 | Cc1nc(N2CCOCC2)sc1CNC(=O)c1cc(NC(=O)c2cc(F)c(F)cc2Cl)[nH]n1 [Example 1-63] | > 7.00 | + | – | – | –
10 | CCN(C(=O)c1cc(NC(=O)c2cc(F)c(F)cc2Cl)[nH]n1)C1CCCCC1 [Example 1-80] | > 7.00 | + | – | – | –
11 | CCCCN(C(=O)c1cc(NC(=O)c2cc(F)c(F)cc2Cl)[nH]n1)C1CCN(C(=O)C(=O)O)CC1 [Example 1-113] | > 7.00 | ++ | – | – | –
12 | O=C(NCc1ccc(F)cc1)c1cc(NC(=O)c2cc(F)c(F)cc2Cl)[nH]n1 [Example 1-70] | > 7.00 | ++ | – | – | –
13 | CN(C)C=Nc1ccccc1CNC(=O)c1cc(NC(=O)c2cc(F)c(F)cc2Cl)[nH]n1.Cl [Example 6-21] | – | – | – | > 7.00 | ++
14 | Cc1cnc(CNC(=O)c2cc(NC(=O)c3cc(F)c(F)cc3Cl)[nH]n2)cn1 [Example 5-35] | > 7.00 | + | – | – | –
15 | CCN(CC)c1ccc(CNC(=O)c2cc(NC(=O)c3cc(F)c(F)cc3Cl)[nH]n2)cn1 [Example 5-29] | > 7.00 | ++ | – | – | –
16 | O=C(NCc1c(Cl)cccc1Cl)c1cc(NC(=O)c2cc(F)c(F)cc2Cl)[nH]n1 [Example 1-134] | > 7.00 | + | – | – | –
17 | CS(=O)(=O)Nc1cccc(CNC(=O)c2cc(NC(=O)c3cc(F)c(F)cc3Cl)[nH]n2)c1 [Example 2-15] | > 7.00 | + | – | – | –
18 | CCCCN(C(=O)c1cc(NC(=O)c2cc(F)c(F)cc2Cl)[nH]n1)c1ccc(C(=O)O)cc1 [Example 4-41] | > 7.00 | + | – | – | –

Row | Compound | pIC50 [1, 2] | vivo (hypoglycemic effect in db/db mice) (db/db mice) | vivo (hypoglycemic effect in db/db mice) (db/db mice; 10 mg/kg) | pIC50 [1, 3] | vivo (hypoglycemic effect) (db/db mice)
19 | O=C(NCc1csc(-c2cccnc2)n1)c1cc(NC(=O)c2cc(F)c(F)cc2Cl)[nH]n1 [Example 1-41] | > 7.00 | + | – | – | –
20 | Cc1ccnc(C)c1CNC(=O)c1cc(NC(=O)c2cc(F)c(F)cc2Cl)[nH]n1 [Example 1-3-1, 5-(2-chloro-4,5-difluoro-benzoylamino)-1H-pyrazole-3-carboxylic acid (2,4-dimethyl-pyridin-3-ylmethyl)-amide dihydrochloride] | > 7.00 | ++ | – | – | –
21 | O=C(NCc1ncc(F)cc1F)c1cc(NC(=O)c2cc(F)c(F)cc2Cl)[nH]n1 [Example 1-26] | > 7.00 | + | – | – | –
22 | CCCCN(CC)C(=O)c1cc(NC(=O)c2cc(F)c(F)cc2Cl)[nH]n1 [Example 1-87] | > 7.00 | + | – | – | –
23 | COCCN(C(=O)c1cc(NC(=O)c2cc(F)c(F)cc2Cl)[nH]n1)C1CCCCC1 [Example 1-90] | > 7.00 | + | – | – | –
24 | O=C(NCc1c(F)cccc1F)c1cc(NC(=O)c2cc(F)c(F)cc2Cl)[nH]n1 [Example 1-21] | > 7.00 | + | – | – | –
25 | CN(C)c1nc(Cl)ccc1CNC(=O)c1cc(NC(=O)c2cc(F)c(F)cc2Cl)[nH]n1 [Example 5-30] | > 7.00 | + | – | – | –
26 | O=C(NCc1ccc(F)nc1)c1cc(NC(=O)c2cc(F)c(F)cc2Cl)[nH]n1 [Example 2-13] | > 7.00 | + | – | – | –
27 | CCNC(=O)CN(C(=O)c1cc(NC(=O)c2cc(F)c(F)cc2Cl)[nH]n1)c1ccccc1 [Example 4-23] | > 7.00 | + | – | – | –
28 | CCOC(=O)CN(C(=O)c1cc(NC(=O)c2cc(F)c(F)cc2Cl)[nH]n1)c1ccccc1 [Example 4-4] | > 7.00 | + | – | – | –
29 | N#Cc1cc(CNC(=O)c2cc(NC(=O)c3cc(F)c(F)cc3Cl)[nH]n2)ccn1 [Example 6-48] | – | – | – | > 7.00 | ++
30 | O=C(NCc1ccc(F)cc1F)c1cc(NC(=O)c2cc(F)c(F)cc2Cl)[nH]n1 [Example 1-19] | > 7.00 | + | – | – | –
31 | C=CCN(C(=O)c1cc(NC(=O)c2cc(F)c(F)cc2Cl)[nH]n1)C1CCCCC1 [Example 1-81] | > 7.00 | + | – | – | –
32 | COc1ccc(CNC(=O)c2cc(NC(=O)c3cc(F)c(F)cc3Cl)[nH]n2)cc1 [Example 1-68] | > 7.00 | + | – | – | –
33 | CCCCN(Cc1cccnc1)C(=O)c1cc(NC(=O)c2cc(F)c(F)cc2Cl)[nH]n1 [Example 1-107] | > 7.00 | ++ | – | – | –
34 | Cc1cccc(C)c1CNC(=O)c1cc(NC(=O)c2cc(F)c(F)cc2Cl)[nH]n1 [Example 1-40] | > 7.00 | + | – | – | –
35 | O=C(NCc1ccco1)c1cc(NC(=O)c2cc(F)c(F)cc2Cl)[nH]n1 [Example 3-25] | > 7.00 | + | – | – | –
36 | COC(=O)c1ccc(CNC(=O)c2cc(NC(=O)c3cc(F)c(F)cc3Cl)[nH]n2)cc1 [Example 1-72] | > 7.00 | + | – | – | –
